In test [1] the target is T1, α-PsGal (recombinant wild-type α-D-galactosidase, GH36) (Pseudoalteromonas sp. KMM 701, UniProt Q19AX0).
T1 construct: recombinant from pET-40b(+) in E. coli Rosetta (DE3); two identical subunits; catalytic Asp451 and Asp516
T1 sequence (Q19AX0 1-710): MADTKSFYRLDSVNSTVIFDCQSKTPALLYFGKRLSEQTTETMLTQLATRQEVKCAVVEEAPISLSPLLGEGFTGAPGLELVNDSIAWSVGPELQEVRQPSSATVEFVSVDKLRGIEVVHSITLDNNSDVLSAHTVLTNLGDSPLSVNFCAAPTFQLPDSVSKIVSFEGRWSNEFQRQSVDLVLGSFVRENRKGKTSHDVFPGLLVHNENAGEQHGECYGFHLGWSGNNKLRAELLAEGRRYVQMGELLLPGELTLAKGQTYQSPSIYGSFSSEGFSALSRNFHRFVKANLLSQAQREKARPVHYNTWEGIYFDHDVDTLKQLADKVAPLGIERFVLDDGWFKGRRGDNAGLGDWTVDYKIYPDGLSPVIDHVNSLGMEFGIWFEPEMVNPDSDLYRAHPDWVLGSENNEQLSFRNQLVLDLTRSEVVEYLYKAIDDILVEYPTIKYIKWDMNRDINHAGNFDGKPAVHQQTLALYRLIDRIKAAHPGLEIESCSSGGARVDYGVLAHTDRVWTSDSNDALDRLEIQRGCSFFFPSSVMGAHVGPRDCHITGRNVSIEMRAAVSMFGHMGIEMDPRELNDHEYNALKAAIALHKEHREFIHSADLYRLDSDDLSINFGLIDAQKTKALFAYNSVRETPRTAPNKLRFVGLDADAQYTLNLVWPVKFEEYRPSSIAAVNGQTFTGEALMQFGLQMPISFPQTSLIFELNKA
The test can be described thus: p-nitrophenol release at […] nm. As to conditions: 0.05 M sodium phosphate, pH 7.0, 20 °C; Km only implied (3.32 mM stated as ~5 Km). Type of test: biochemical.

For test [2], the target named is T1, α-PsGal (recombinant wild-type α-D-galactosidase, GH36). The test can be described thus: inhibition of pNP-α-Gal hydrolysis. It counts as biochemical. As to conditions: competitive; reaction product; active site; pH 7.0, 20 °C; read-out: decreased the activity on 50%.

We go through 2 compounds from article PMC6356649, “Effect of Pentacyclic Guanidine Alkaloids from the Sponge Monanchora pulchra on Activity of α-Glycosidases from Marine Bacteria” (Marine Drugs, 2019).

`O=[N+]([O-])c1ccc(O[C@H]2O[C@H](CO)[C@H](O)[C@H](O)[C@H]2O)cc1` [4-nitrophenyl-α-D-galactopyranoside]: in test [1], the “p-nitrophenol release at 400 nm” value is given as “p-nithrophenil galactopyranoside (pNP-α-Gal) for α-PsGal”.
Consider `OC[C@H]1OC(O)[C@H](O)[C@@H](O)[C@H]1O` (stereo partly drawn) [D-galactose], for which, in test [2], the IC50 came out at 700 µM.
